Laboratory results: US9309263B2, “Fused multi-cyclic sulfone compounds as inhibitors of beta-secretase and methods of use thereof” (AMGEN INC., priority 2013, dated 2016)
Read-outs that look alike come from different tables or passages of the source.

Key:
[1] = test system: Aβ 40 in conditioned medium of cells stably expressing Amyloid Precursor Protein (APP); assay: In vitro BACE cell-based assay (Aβ 40 sandwich ELISA); conditions: Homo sapiens, HEK293
Procedure, shortened: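 Aβ40 in conditioned medium measured by pAb40/biotin-6E10 sandwich ELISA with time-resolved europium fluorescence, after 24 h exposure of stable APP cells to compounds (10-point series starting 100 μM or 10 μM; 0.1% DMSO). IC50 fitted from percent of control against concentration.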

[2] = biological target: Cathepsin D (Cat D) (Homo sapiens, UniProt P07339); assay: In vitro enzymatic Cathepsin D (Cat D) FRET assay; format: biochemical
Procedure, shortened: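 FRET peptide substrate (20 nM) is cleaved by CHO-derived recombinant enzyme (9 nM) for 1 h after a 1 h inhibitor pre-incubation, at pH 3.5 in citrate buffer with 5 mM CHAPS and 10% DMSO. Tris addition ends the reaction; fluorescence measured at 500 nm excitation, 580 nm emission.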

[3] = biological target: Beta Secretase enzyme (BACE) (Homo sapiens, UniProt P56817); assay: In vitro enzymatic BACE FRET assay; format: biochemical; conditions: read-out: BACE1 FRET assay IC50
Procedure, shortened: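 Cleavage of a quenched 50 nM FRET peptide substrate, read as fluorescence (excitation 488 nm, […]) after 1 h and Tris quench to neutrality. Buffer: 0.05 M acetate pH 4.2 with 10% DMSO and 100 uM genapol. Inhibitor dilutions were pre-incubated 1 h with 0.2 nM enzyme.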

[4] = average IC50, HEK cell assay, Aβ 40 readout
[5] = Cathepsin D FRET assay, read-out: CatD IC50
[6] = average IC50, in vitro enzymatic BACE FRET assay
[7] = text summary referring to data in Table 2

Sequence of Beta Secretase enzyme (BACE) (P56817 46-501): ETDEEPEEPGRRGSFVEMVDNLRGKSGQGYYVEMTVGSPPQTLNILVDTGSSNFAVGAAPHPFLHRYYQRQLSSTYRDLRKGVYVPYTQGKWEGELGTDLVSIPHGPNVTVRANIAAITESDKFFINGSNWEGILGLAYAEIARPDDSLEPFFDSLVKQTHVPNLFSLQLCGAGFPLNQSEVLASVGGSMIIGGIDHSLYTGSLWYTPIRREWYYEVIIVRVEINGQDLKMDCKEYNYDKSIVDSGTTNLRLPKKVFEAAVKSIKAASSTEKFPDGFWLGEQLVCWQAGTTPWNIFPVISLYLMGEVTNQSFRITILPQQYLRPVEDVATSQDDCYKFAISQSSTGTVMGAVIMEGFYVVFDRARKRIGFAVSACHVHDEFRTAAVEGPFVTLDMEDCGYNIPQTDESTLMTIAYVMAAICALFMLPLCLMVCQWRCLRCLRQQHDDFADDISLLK
Sequence of Cathepsin D (Cat D) (P07339 65-412, species assumed): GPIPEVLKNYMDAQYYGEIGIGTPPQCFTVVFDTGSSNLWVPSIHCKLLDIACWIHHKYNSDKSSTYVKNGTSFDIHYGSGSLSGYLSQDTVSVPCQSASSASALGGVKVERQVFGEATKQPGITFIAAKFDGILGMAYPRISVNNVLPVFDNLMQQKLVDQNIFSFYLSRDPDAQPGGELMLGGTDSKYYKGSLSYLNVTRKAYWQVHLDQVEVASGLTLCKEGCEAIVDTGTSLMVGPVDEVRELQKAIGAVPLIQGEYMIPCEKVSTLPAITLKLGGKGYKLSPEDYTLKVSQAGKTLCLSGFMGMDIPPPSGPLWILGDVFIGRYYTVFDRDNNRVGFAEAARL

| Structure (SMILES) | IC50 [1, 4] [µM] | IC50 [2, 5] [µM] | IC50 [3, 6] [µM] | IC50 ([1]; HEK cell, average IC50) [µM] | IC50 ([2]; read-out: CatD IC50) [µM] | IC50 [2, 7] [µM] | IC50 ([3]; average IC50) [µM] | IC50 ([1]; HEK cells, average IC50) [µM] |
| --- | --- | --- | --- | --- | --- | --- | --- | --- |
| COc1cnc(C(=O)Nc2ccc3c(c2)[C@@]2(CF)N=C(N)C(C)(C)S(=O)(=O)[C@@H]2CCO3)c(C)c1 [Example 152, N-((4aR,11bS)-2-amino-11b-(fluoromethyl)-3,3-dimethyl-4,4-dioxido-4a,5,6,11b-tetrahydro-3H-[1]benzoxepino[4,5-b][1,4]thiazin-10-yl)-5-methoxy-3-methyl-2-pyridinecarboxamide] | 0.075 | > 400 | 0.031 |  |  |  |  |  |
| COc1cnc(C(=O)Nc2ccc3c(c2)[C@@]2(C)N=C(N)C(C)(C)S(=O)(=O)[C@H]2CCC3)cn1 [Example 8, N-((4aS,11bR)-2-amino-3,3,11b-trimethyl-4,4-dioxido-3,4a,5,6,7,11b-hexahydrobenzo[3,4]cyclohepta[1,2-b][1,4]thiazin-10-yl)-5-methoxy-2-pyrazinecarboxamide] |  |  |  | 0.031 | 1890 | > 1200 | 0.172 |  |
| COCCOc1cnc2c(Nc3ccc4c(c3)[C@@]3(C)N=C(N)C(C)(C)S(=O)(=O)[C@@H]3C[C@H](C)O4)nccc2n1 [Example 139, (4aR,6S,11bR)-N^~10^~-(2-(2-methoxyethoxy)pyrido[3,4-b]pyrazin-5-yl)-3,3,6,11b-tetramethyl-4a,5,6,11b-tetrahydro-3H-[1]benzoxepino[4,5-b][1,4]thiazine-2,10-diamine 4,4-dioxide] | 0.008 | 304 | 0.007 |  |  |  |  |  |
| Cc1cc(Cl)cnc1C(=O)Nc1ccc2c(c1)[C@@]1(CF)N=C(N)C(C)(C)S(=O)(=O)[C@@H]1CCO2 [Example 149, N-((4aR,11bS)-2-amino-11b-(fluoromethyl)-3,3-dimethyl-4,4-dioxido-4a,5,6,11b-tetrahydro-3H-[1]benzoxepino[4,5-b][1,4]thiazin-10-yl)-5-chloro-3-methyl-2-pyridinecarboxamide] | 0.044 | > 400 | 0.009 |  |  |  |  |  |
| Cc1cc(OCC2CC2)cnc1C(=O)Nc1ccc2c(c1)[C@@]1(C)N=C(N)C(C)(C)S(=O)(=O)[C@@H]1CCO2 [Example 170, N-((4aR,11bR)-2-amino-3,3,11b-trimethyl-4,4-dioxido-4a,5,6,11b-tetrahydro-3H-[1]benzoxepino[4,5-b][1,4]thiazin-10-yl)-5-(cyclopropylmethoxy)-3-methyl-2-pyridinecarboxamide] |  |  |  |  | 2050 |  | 0.014 | 0.026 |
| CC1(C)C(N)=N[C@]2(C)c3cc(NC(=O)c4ncc(C(F)(F)F)cc4Cl)ccc3OCC[C@H]2S1(=O)=O [Example 25, N-((4aR,11bR)-2-amino-3,3,11b-trimethyl-4,4-dioxido-4a,5,6,11b-tetrahydro-3H-[1]benzoxepino[4,5-b][1,4]thiazin-10-yl)-3-chloro-5-(trifluoromethyl)-2-pyridinecarboxamide] |  |  |  | 0.002 | 3530 | > 1200 | 0.007 |  |
| Cc1cc(Cl)cnc1C(=O)Nc1cnc2c(c1)[C@@]1(C)N=C(N)C3(CCC3)S(=O)(=O)[C@H]1CCO2 [Example 58, N-((4a′S,11b′R)-2′-amino-11b′-methyl-4′,4′-dioxido-4a′,5′,6′,11b′-tetrahydrospiro[cyclobutane-1,3′-pyrido[3′,2′:6,7]oxepino[4,5-b][1,4]thiazin]-10′-yl)-5-chloro-3-methyl-2-pyridinecarboxamide] |  |  |  | 0.011 | 656 |  | 0.014 |  |
| CC1(C)C(N)=N[C@]2(C)c3cc(NC(=O)c4ccc(OCC(F)F)cn4)ccc3OCC[C@H]2S1(=O)=O [Example 96, N-((4aR,11bR)-2-amino-3,3,11b-trimethyl-4,4-dioxido-4a,5,6,11b-tetrahydro-3H-[1]benzoxepino[4,5-b][1,4]thiazin-10-yl)-5-(2,2-difluoroethoxy)-2-pyridinecarboxamide] | 0.098 | 1180 | 0.033 |  |  |  |  |  |
| Cc1cc(COc2cnc(C(=O)Nc3ccc4c(c3)[C@@]3(C)N=C(N)C(C)(C)S(=O)(=O)[C@@H]3C[C@H](C)O4)cn2)on1 [Example 78, N-((4aR,6S,11bR)-2-amino-3,3,6,11b-tetramethyl-4,4-dioxido-4a,5,6,11b-tetrahydro-3H-[1]benzoxepino[4,5-b][1,4]thiazin-10-yl)-5-((3-methyl-5-isoxazolyl)methoxy)-2-pyrazinecarboxamide] |  |  |  | 0.026 | 407 |  | 0.007 |  |
| CC1(C)C(N)=N[C@]2(C)c3cc(Nc4ncnc5cc(OCC6CC6)cnc45)ccc3OCC[C@H]2S1(=O)=O [Example 167, (4aR,11bR)-N1^~10^~-(7-(cyclopropylmethoxy)pyrido[3,2-d]pyrimidin-4-yl)-3,3,11b-trimethyl-4a,5,6,11b-tetrahydro-3H-[1]benzoxepino[4,5-b][1,4]thiazine-2,10-diamine 4,4-dioxide] |  |  |  |  | 384 |  | 0.008 | 0.029 |
| Cc1cc(C(F)(F)F)cnc1C(=O)Nc1ccc2c(c1)[C@@]1(C)N=C(N)C(C)(C)S(=O)(=O)[C@@H]1CC(C)(C)O2 [Example 113, N-((4aR,11bR)-2-amino-3,3,6,6,11b-pentamethyl-4,4-dioxido-4a,5,6,11b-tetrahydro-3H-[1]benzoxepino[4,5-b][1,4]thiazin-10-yl)-3-methyl-5-(trifluoromethyl)-2-pyridinecarboxamide] | 0.002 | 1200 | 0.006 |  |  |  |  |  |

Other lines, results leading:

| IC50 [1, 4] [µM] | IC50 [2, 5] [µM] | IC50 [3, 6] [µM] | IC50 ([1]; HEK cell, average IC50) [µM] | IC50 ([2]; read-out: CatD IC50) [µM] | IC50 [2, 7] [µM] | IC50 ([3]; average IC50) [µM] | IC50 ([1]; HEK cells, average IC50) [µM] | Structure (SMILES) |
| --- | --- | --- | --- | --- | --- | --- | --- | --- |
|  |  |  |  | 652 |  | 0.008 | 0.003 | CC1(C)C(N)=N[C@]2(C)c3cc(NC(=O)c4ccc(OC(F)F)cn4)ccc3OCC[C@H]2S1(=O)=O [Example 194, N-((4aR,11bR)-2-amino-3,3,11b-trimethyl-4,4-dioxido-4a,5,6,11b-tetrahydro-3H-[1]benzoxepino[4,5-b][1,4]thiazin-10-yl)-5-(difluoromethoxy)-2-pyridinecarboxamide] |
|  |  |  | 0.001 | 1990 | > 1200 | 0.002 |  | CC#C[C@@H](C)Oc1ccc(C(=O)Nc2ccc3c(c2)[C@@]2(C)N=C(N)C(C)(C)S(=O)(=O)[C@@H]2CCO3)nc1 (single isomer, unassigned) [Example 68] |
|  |  |  | 0.089 | 269 |  | 0.008 |  | CC1(C)C(N)=N[C@]2(C)c3cc(NC(=O)c4ccc(Cl)cn4)ccc3OCC[C@@]2(F)S1(=O)=O [Example 66, N-((4aR,11bR)-2-amino-4a-fluoro-3,3,11b-trimethyl-4,4-dioxido-4a,5,6,11b-tetrahydro-3H-[1]benzoxepino[4,5-b][1,4]thiazin-10-yl)-5-chloro-2-pyridinecarboxamide] |
| 0.009 | 583 | 0.005 |  |  |  |  |  | C[C@H]1C[C@@H]2[C@](C)(N=C(N)C(C)(C)S2(=O)=O)c2cc(NC(=O)c3cnc(OCc4ccn(C)n4)cn3)ccc2O1 [Example 82, N-((4aR,6S,11bR)-2-amino-3,3,6,11b-tetramethyl-4,4-dioxido-4a,5,6,11b-tetrahydro-3H-[1]benzoxepino[4,5-b][1,4]thiazin-10-yl)-5-((1-methyl-1H-pyrazol-3-yl)methoxy)-2-pyrazinecarboxamide] |
|  |  |  | 0.032 | 2980 | > 1200 | 0.067 |  | COc1cnc(C(=O)Nc2ccc3c(c2)[C@@]2(C)N=C(N)C(C)(C)S(=O)(=O)[C@@H]2CCC3)c(C)c1 [Example 42, N-((4aR,11bR)-2-amino-3,3,11b-trimethyl-4,4-dioxido-3,4a,5,6,7,11b-hexahydrobenzo[3,4]cyclohepta[1,2-b][1,4]thiazin-10-yl)-5-methoxy-3-methyl-2-pyridinecarboxamide] |
